Experiments:
Human PBMC = assay: Cytokine production upon human PBMC stimulation (ORN complexed to DOTAP, 16 h, ELISA); assay type: cell-based; set-up: key to IFN-alpha / TNF-alpha: +: cytokine production; −: no cytokine production; settings: for IFN-alpha / TNF-alpha: human PBMC stimulated for 16 h, supernatant ELISA
Summary of the method: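 Healthy-donor PBMCs were stimulated for 16 h with ORN complexed to DOTAP (25 μg/ml), titrated in 7 steps of 1/3 from 2 μM (to 0.9 nM). IFN-alpha and TNF-alpha in supernatants were measured by ELISA. Mean/max activity at 0.6 μM and EC50 came from 3-6 donors over two experiments.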

[1] = tested on: isolated monocytes and mDC; assay: TNF-alpha and IL-12p40 production upon isolated monocytes and mDC stimulation; assay type: cell-based, human; settings: 0.5 μM ORN complexed to 10 μg/ml DOTAP, 16 h
Method: FIG. 2 is a set of bar graphs depicting ORN induced cytokine production upon isolated pDC (FIG. 2a), monocytes (FIG. 2b) and mDC (FIG. 2c) stimulation. Cells were stimulated with 0.5 μM ORN complexed to 10 μg/ml DOTAP, 0.5 μM CpG ODN or DOTAP or media alone and IFN-alpha (FIG. 2a), TNF-alpha […] and IL-12p40 (FIG. 2c) were measured.
A similar assay testing different ORN sequences was performed using isolated pDC, monocytes and mDC stimulation. Cells were stimulated with 0.5 μM ORN complexed to 10 μg/ml DOTAP, 0.5 μM CpG ODN or DOTAP or media alone. After 16 h the supernatants were harvested and IFN-alpha, TNF-alpha and IL-12p40 levels were measured by ELISA.

Substance	IFN-alpha production upon PBMC stimulation (in words) (Human PBMC; human PBMC)	IFN-alpha (Human PBMC)	TNF-alpha (Human PBMC)	IL-12p40 production (in words) [1]	TNF-alpha production (in words) [1]
U*U*A*U*U*A*U*U*A*U*U*A*U*U*A*U*U*A*U*U (UUAUUAUUAUUAUUAUUAUU; chemistry not fully specified) [SEQ ID NO: 13]	no IFN-alpha cytokine production	−	+	clear TNF-alpha and IL-12p40 production	clear TNF-alpha and IL-12p40 production
U*U*G*U*U*G*U*U*G*U*U*G*U*U*G*U*U*G*U*U (UUGUUGUUGUUGUUGUUGUU; listed as RNA, chemistry not fully specified) [SEQ ID NO: 21]		+	+	clear TNF-alpha and IL-12p40 production	clear TNF-alpha and IL-12p40 production
